# According to patent US9422246B2, “Benzylidene azolidine derivative or salt thereof” (ROHTO Pharmaceutical Co., Ltd., priority 2012, dated 2016):
# Tests used:
# [1] = Evaluation of hydrophilicity (solubility in test solvent); type: physicochemical; settings: 25° C.; test solvent 10% by weight dipropylene glycol, 10% ethanol, 80% purified water
# Procedure: Test solvent: A mixed solvent containing 10% by weight of dipropylene glycol, 10% by weight of ethanol, and 80% by weight of purified water (based on 100% by weight of the total amount of dipropylene glycol, ethanol, and purified water).
# Based on the difference in solubility, the hydrophilicity was evaluated as follows.
# Particularly high hydrophilicity: A solubility of 1.0 or more (g/100 g test solvent)
# High hydrophilicity: A solubility of 0.2 to less than 1.0 (g/100 g test solvent)
# Low hydrophilicity: A solubility of 0.1 to less than 0.2 (g/100 g test solvent)
# No hydrophilicity: A solubility of less than 0.1 (g/100 g test solvent) or the occurrence of suspended solids
# [2] = UV absorbing properties (UV spectrum in ethanol); type: physicochemical; settings: 5 ppm in ethanol, quartz cell 1 cm optical path length
# Procedure: The resulting compound 1 was dissolved at a concentration of 5 ppm in ethanol as a solvent to form a sample solution. After the prepared sample solution was injected into a quartz cell (1 cm in optical path length), the UV spectrum of the sample was measured with a spectrophotometer (UV-2450 manufactured by SHIMADZU CORPORATION), in which the maximal absorption wavelength (λmax) and the absorbance at the maximal absorption wavelength were determined. When the maximal absorption wavelength falls within the ultraviolet wavelength range, the higher absorbance at the maximal absorption wavelength indicates the better UV absorbing properties.
Solubility [1],Absorbance at maximal absorption wavelength [2],Maximal absorption wavelength (λmax) [2] [nm],SMILES
<0.05 g/100 g test solvent,,,"CCCCC(CC)COC(=O)CCN1C(=O)NC(=Cc2ccc(OC)c(OC)c2)C1=O (stereo not shown) [1′, 2-ethylhexyl dimethoxybenzylidene dioxoimidazolidine propionate, reference compound]"
2.0 g/100 g test solvent,0.43,335,"O=C1NC(=Cc2ccc(OCCOCCO)cc2)C(=O)N1CCOCCO [Compound 1, 5-[4-[2-(2-hydroxyethoxyl)ethoxy]benzylidene]-3-[2-(2-hydroxyethoxyl)ethyl]hydantoin]"
25< g/100 g test solvent,0.12,325,"O=C1C(=Cc2ccc(OCCOCCOCCO)cc2)N(CCOCCOCCO)C(=O)N1CCOCCOCCO [Compound 2, 5-[4-[2-[2-(2-hydroxyethoxyl)ethoxy]ethoxy]benzylidene]-1,3-bis[2-[2-(2-hydroxyethoxyl)ethoxy]ethyl]hydantoin]"
1.2 g/100 g test solvent,0.30,336,"O=C(COc1ccc(C=C2NC(=O)N(CC(=O)N(CCO)CCO)C2=O)cc1)N(CCO)CCO [Compound 3, 5-[4-[2-[bis(2-hydroxyethyl)amino]-2-oxoethoxy]benzylidene]-3-[2-[bis(2-hydroxyethyl)amino]-2-oxoethyl]hydantoin]"
1.5 g/100 g test solvent,0.34,338,"O=C(CCN1C(=O)NC(=Cc2ccc(OCCOCCO)cc2)C1=O)N(CCO)CCO [Compound 4, 5-[4-[2-(2-hydroxyethoxyl)ethoxy]benzylidene]-3-[3-[bis(2-hydroxyethyl)amino]-3-oxopropyl]hydantoin]"
0.2 g/100 g test solvent,0.20,335,"O=C(COc1ccc(C=C2NC(=O)N(CC(=O)OCCOCCO)C2=O)cc1)OCCOCCO [Compound 5, 5-[4-[2-[2-(2-hydroxyethoxyl)ethoxy]-2-oxoethoxy]benzylidene]-3-[2-[2-(2-hydroxyethoxyl)ethoxy]-2-oxoethyl]hydantoin]"
25< g/100 g test solvent,0.18,328,"COc1ccc(C=C2C(=O)N(CC(=O)N(CCO)CCO)C(=O)N2CC(=O)N(CCO)CCO)cc1 [Compound 6, 5-(4-methoxybenzylidene]-1,3-bis[2-[bis(2-hydroxyethyl)amino]-2-oxoethyl]hydantoin]"
25< g/100 g test solvent,0.14,326,"COc1ccc(C=C2C(=O)N(CC(=O)OCCOCCO)C(=O)N2CC(=O)OCCOCCO)cc1 [Compound 7, 5-(4-methoxybenzylidene)-1,3-bis[2-[2-(2-hydroxyethoxy)ethoxy]-2-oxoethyl]hydantoin]"
